{"source": "paper PMC3537229", "about": "(European journal of pharmacology, 2012)", "key": {"NET [1]": {"target": "T1, NET (Rattus norvegicus, UniProt Q63380)", "T1 sequence (Q63380 1-617)": "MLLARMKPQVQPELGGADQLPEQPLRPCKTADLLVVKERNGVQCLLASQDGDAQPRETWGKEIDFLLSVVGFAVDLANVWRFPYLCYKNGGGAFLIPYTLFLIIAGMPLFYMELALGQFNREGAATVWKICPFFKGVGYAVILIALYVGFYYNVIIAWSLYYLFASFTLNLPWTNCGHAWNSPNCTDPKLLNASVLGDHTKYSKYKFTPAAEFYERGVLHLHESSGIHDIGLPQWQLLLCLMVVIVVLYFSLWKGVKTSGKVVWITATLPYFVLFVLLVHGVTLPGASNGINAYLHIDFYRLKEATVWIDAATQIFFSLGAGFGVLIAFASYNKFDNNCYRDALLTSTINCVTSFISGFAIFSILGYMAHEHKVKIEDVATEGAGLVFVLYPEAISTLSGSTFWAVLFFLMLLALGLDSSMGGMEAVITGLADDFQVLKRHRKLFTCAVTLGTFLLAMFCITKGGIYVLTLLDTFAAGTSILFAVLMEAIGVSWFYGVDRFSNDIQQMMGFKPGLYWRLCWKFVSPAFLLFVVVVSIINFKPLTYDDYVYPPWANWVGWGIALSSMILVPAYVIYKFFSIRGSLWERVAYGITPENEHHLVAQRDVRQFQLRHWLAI", "conditions": "percentage of maximal release response; ref Baumann et al. (2012b); cited from earlier work"}, "SERT [2]": {"target": "T2, SERT (Rattus norvegicus, UniProt P31652)", "T2 sequence (P31652 whole entry)": "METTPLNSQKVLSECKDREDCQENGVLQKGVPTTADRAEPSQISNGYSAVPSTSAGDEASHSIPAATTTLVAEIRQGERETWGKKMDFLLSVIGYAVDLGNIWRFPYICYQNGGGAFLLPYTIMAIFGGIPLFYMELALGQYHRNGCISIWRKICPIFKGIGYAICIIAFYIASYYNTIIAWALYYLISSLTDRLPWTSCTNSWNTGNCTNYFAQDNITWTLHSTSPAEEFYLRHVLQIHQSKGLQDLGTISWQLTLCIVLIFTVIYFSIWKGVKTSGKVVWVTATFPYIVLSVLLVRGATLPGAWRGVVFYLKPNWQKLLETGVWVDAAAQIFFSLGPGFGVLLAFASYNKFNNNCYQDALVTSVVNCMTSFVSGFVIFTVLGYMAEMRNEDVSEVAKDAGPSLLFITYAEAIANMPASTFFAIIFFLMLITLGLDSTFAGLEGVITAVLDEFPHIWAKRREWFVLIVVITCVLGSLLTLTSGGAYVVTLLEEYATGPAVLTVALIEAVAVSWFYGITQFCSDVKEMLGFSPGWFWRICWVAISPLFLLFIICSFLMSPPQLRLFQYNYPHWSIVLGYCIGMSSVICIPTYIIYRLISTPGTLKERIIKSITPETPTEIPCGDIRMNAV", "conditions": "percentage of maximal release response; ref Baumann et al. (2012b); cited from earlier work"}, "mice [3]": {"system": "mice", "conditions": "mice, 1, 3 or 10 mg/kg, i.p.; ref Robinson et al. (2012); cited from earlier work"}, "SERT [4]": {"target": "T2, SERT", "experiment": "Release of [3H]serotonin via SERT in rat brain synaptosomes", "assay_type": "biochemical"}, "DAT [5]": {"target": "T3, DAT (Rattus norvegicus, UniProt P23977)", "T3 sequence (P23977 whole entry)": "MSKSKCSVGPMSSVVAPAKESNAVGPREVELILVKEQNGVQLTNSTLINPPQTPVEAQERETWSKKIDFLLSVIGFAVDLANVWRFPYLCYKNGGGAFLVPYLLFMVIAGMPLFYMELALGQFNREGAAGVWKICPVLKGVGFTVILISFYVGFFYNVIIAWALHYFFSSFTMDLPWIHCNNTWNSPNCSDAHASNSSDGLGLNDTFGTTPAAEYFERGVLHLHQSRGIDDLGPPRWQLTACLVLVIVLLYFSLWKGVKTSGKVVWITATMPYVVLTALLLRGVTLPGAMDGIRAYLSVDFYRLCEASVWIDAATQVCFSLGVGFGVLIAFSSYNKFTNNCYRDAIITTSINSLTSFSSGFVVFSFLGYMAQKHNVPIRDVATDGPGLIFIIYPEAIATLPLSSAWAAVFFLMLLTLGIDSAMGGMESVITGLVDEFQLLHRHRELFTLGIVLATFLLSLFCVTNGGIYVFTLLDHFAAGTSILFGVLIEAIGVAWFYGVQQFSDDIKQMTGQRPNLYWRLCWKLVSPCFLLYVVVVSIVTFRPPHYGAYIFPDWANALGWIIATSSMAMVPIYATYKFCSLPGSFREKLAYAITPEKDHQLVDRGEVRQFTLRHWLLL", "experiment": "Release of [3H]MPP+ via DAT in rat brain synaptosomes", "assay_type": "biochemical"}, "NET [6]": {"target": "T1, NET", "experiment": "Inhibition of [3H]norepinephrine uptake in rat brain synaptosomes", "assay_type": "biochemical"}, "NET [7]": {"target": "T1, NET", "experiment": "Release of [3H]MPP+ via NET in rat brain synaptosomes", "assay_type": "biochemical"}, "SERT [8]": {"target": "T2, SERT", "experiment": "Inhibition of [3H]serotonin uptake in rat brain synaptosomes", "assay_type": "biochemical"}, "DAT [9]": {"target": "T3, DAT", "experiment": "Inhibition of [3H]dopamine uptake in rat brain synaptosomes", "assay_type": "biochemical"}, "rats [10]": {"system": "rats", "conditions": "cited from earlier work"}, "DAT [11]": {"target": "T3, DAT", "conditions": "percentage of maximal release response; ref Baumann et al. (2012b); cited from earlier work"}, "mice [12]": {"system": "mice", "conditions": "ref Angoa-Perez et al., 2012, Lopez-Arnau et al., Marusich et al.; cited from earlier work"}, "[13]": {"system": "extracellular levels of dopamine and serotonin in rat nucleus accumbens", "conditions": "i.v. injection, 0.3 or 1.0 mg/kg; ref Baumann et al., 2012a; cited from earlier work"}, "mice [14]": {"system": "mice", "conditions": "30 mg/kg, i.p.; ref Lisek et al., 2012; cited from earlier work"}, "rats [15]": {"system": "rats", "conditions": "30 mg/kg, i.p.; ref Lisek et al., 2012; cited from earlier work"}, "[16]": {"conditions": "ref Kehr et al., 2011; cited from earlier work"}}, "note": "Where two headings read alike, the source gives them in different places."}
{"molecule": "CC(N)Cc1ccccc1", "note": "(centres unmarked) [Amphetamine]", "values": [{"measurement": "NET release Emax %", "setting": "NET [1]", "result": "92 ± 1", "unit": "%"}, {"measurement": "SERT release Emax %", "setting": "SERT [2]", "result": "97 ± 2", "unit": "%"}]}
{"molecule": "COC(=O)[C@H]1[C@@H](OC(=O)c2ccccc2)C[C@@H]2CC[C@H]1N2C", "note": "[Cocaine]", "values": [{"measurement": "Brain stimulation reward thresholds", "setting": "mice [3]", "result": "this effect is mimicked by identical doses of cocaine"}]}
{"molecule": "CNC(C)Cc1ccc2c(c1)OCO2", "note": "(centres unmarked) [MDMA, 3,4-methylenedioxymethamphetamine]", "values": [{"measurement": "EC50", "setting": "SERT [4]", "result": "39 ± 5", "unit": "nM"}, {"measurement": "Emax", "setting": "SERT [4]; read-out: SERT release Emax %", "result": 103, "unit": "%"}, {"measurement": "EC50", "setting": "DAT [5]", "result": "42 ± 2", "unit": "nM"}, {"measurement": "Emax", "setting": "DAT [5]; read-out: DAT release Emax %", "result": 100, "unit": "%"}, {"measurement": "IC50", "setting": "NET [6]", "result": "450 ± 30", "unit": "nM"}, {"measurement": "EC50", "setting": "NET [7]", "result": "53 ± 7", "unit": "nM"}, {"measurement": "Emax", "setting": "NET [7]; read-out: NET release Emax %", "result": 95, "unit": "%"}, {"measurement": "IC50", "setting": "SERT [8]", "result": "125 ± 11", "unit": "nM"}, {"measurement": "IC50", "setting": "DAT [9]", "result": "1010 ± 39", "unit": "nM"}]}
{"molecule": "CCCC(C(=O)c1ccc2c(c1)OCO2)N1CCCC1", "note": "(centres unmarked) [MDPV, 3,4-methylenedioxypyrovalerone]", "values": [{"measurement": "Self-administration by rats", "setting": "rats [10]; i.v., 0.05, 0.1 or 0.2 mg/kg, ref Watterson et al., 2012", "result": "is readily self-administered by rats"}, {"measurement": "Drug-taking behavior with extended access", "setting": "rats [10]; rats allowed extended access to the drug, ref Watterson et al., 2012", "result": "escalation of drug-taking behavior is observed"}, {"measurement": "Uptake blocking potency at NET compared to cocaine (fold more potent)", "setting": "NET [6]; more potent than cocaine", "result": 10, "unit": "fold"}, {"measurement": "Uptake blocking potency at SERT compared to cocaine (fold less potent)", "setting": "SERT [8]; less potent than cocaine", "result": 10, "unit": "fold"}, {"measurement": "Uptake blocking potency at DAT compared to cocaine (fold more potent)", "setting": "DAT [9]; more potent than cocaine", "result": 50, "unit": "fold"}]}
{"molecule": "CNC(C)C(=O)c1ccc(C)cc1", "note": "(centres unmarked) [Mephedrone, 4-methylmethcathinone]", "values": [{"measurement": "NET release Emax %", "setting": "NET [1]", "result": "99 ± 4", "unit": "%"}, {"measurement": "DAT release Emax %", "setting": "DAT [11]", "result": "102 ± 2", "unit": "%"}, {"measurement": "SERT release Emax %", "setting": "SERT [2]", "result": "101 ± 1", "unit": "%"}, {"measurement": "Locomotor stimulant effects in mice", "setting": "mice [12]", "result": "produces locomotor stimulant effects"}, {"measurement": "Extracellular levels of dopamine and serotonin in rat nucleus accumbens", "setting": "[13]", "result": "increases extracellular levels of dopamine and serotonin"}, {"measurement": "Self-administration by rats", "setting": "rats [10]; i.v., 0.24 mg/infusion, ref Hadlock et al. (2011)", "result": "is self-administered by rats"}, {"measurement": "Place preference in mice", "setting": "mice [14]", "result": "engenders a positive place preference"}, {"measurement": "Place preference in rats", "setting": "rats [15]", "result": "engenders a positive place preference"}, {"measurement": "Rate of clearance compared to MDMA", "setting": "[16]", "result": "much faster rate of clearance when compared to MDMA"}, {"measurement": "Brain stimulation reward thresholds", "setting": "mice [3]", "result": "lowers brain stimulation reward thresholds"}]}
{"molecule": "CNC(C)C(=O)c1ccc2c(c1)OCO2", "note": "(centres unmarked) [Methylone, 3,4-methylenedioxymethcathinone]", "values": [{"measurement": "SERT release Emax %", "setting": "SERT [2]", "result": "98 ± 2", "unit": "%"}, {"measurement": "Extracellular levels of dopamine and serotonin in rat nucleus accumbens", "setting": "[13]", "result": "increases extracellular levels of dopamine and serotonin"}]}
